Test results: PubChem BioAssay AID330 (DTP/NCI, 2004)
Values joined by “and” are separate entries in the source; they are usually repeats but may differ in a detail not shown here. Equal values may be shown once. Toxic doses and inconclusive results are not listed.

System: P388 leukemia ip, CD2F1 mice, survival T/C
Assay: NCI In Vivo Anticancer Drug Screen. Data for tumor model P388 Leukemia (intraperitoneal) in CD2F1 (CDF1) mice
Conditions: endpoint: median survival time, higher = longer survival
Procedure, shortened: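 Mice carrying the transplanted tumor received test compound or vehicle. Survival was recorded in each group, and the value is the treated-group measurement divided by that of the vehicle-treated control group.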

Cc1c2ccncc2c(C)c2c1[nH]c1ccccc12 was tested, and the T/C (dose: 0.31 mg/kg/injection, schedule: Q04DX003 (iv), vehicle: water) was 99 % of control, the T/C (dose: 0.63 mg/kg/injection, schedule: Q04DX003 (iv), vehicle: water) was 107 % of control and the T/C (dose: 1.25 mg/kg/injection, schedule: Q04DX003 (iv), vehicle: water) was 99 % of control. The T/C (dose: 1.56 mg/kg/injection, schedule: Q04DX003 (ip), vehicle: distilled water + Tween-80) was 92 % of control, the T/C (dose: 2.5 mg/kg/injection, schedule: Q04DX003 (ip), vehicle: water) was 100 % of control and the T/C (dose: 2.5 mg/kg/injection, schedule: Q04DX003 (iv), vehicle: distilled water + Tween-80) was 107 % of control. The T/C (dose: 2.5 mg/kg/injection, schedule: Q04DX003 (iv), vehicle: water) was 94 % of control, the T/C (dose: 3.12 mg/kg/injection, schedule: Q04DX003 (ip), vehicle: distilled water + Tween-80) was 100 % of control and the T/C (dose: 3.13 mg/kg/injection, schedule: Q01DX009 (ip), vehicle: saline with Tween-80) was 154 % of control. For the same compound, the T/C (dose: 3.89 mg/kg/injection, schedule: Q04DX003 (ip), vehicle: clinical formulation) was 111 % of control, the T/C (dose: 5.0 mg/kg/injection, schedule: Q01DX005 (ip), vehicle: Klucel (hydroxypropylcellulose) (HPC)) was 156 % of control and the T/C (dose: 5.0 mg/kg/injection, schedule: Q04DX003 (ip), vehicle: distilled water + Tween-80) was 110 % of control. The T/C (dose: 5.0 mg/kg/injection, schedule: Q04DX003 (ip), vehicle: water) was 106 % of control and 110 % of control, the T/C (dose: 5.0 mg/kg/injection, schedule: Q04DX003 (iv), vehicle: distilled water + Tween-80) was 100 % of control and the T/C (dose: 5.0 mg/kg/injection, schedule: Q04DX003 (iv), vehicle: water) was 108 % of control. For the same compound, the T/C (dose: 6.25 mg/kg/injection, schedule: Q01DX009 (ip), vehicle: saline with Tween-80) was 181 % of control, the T/C (dose: 6.25 mg/kg/injection, schedule: Q04DX003 (ip), vehicle: clinical formulation) was 118 % of control and 119 % of control and the T/C (dose: 6.25 mg/kg/injection, schedule: Q04DX003 (ip), vehicle: distilled water + Tween-80) was 100 % of control and 121 % of control. The T/C (dose: 6.25 mg/kg/injection, schedule: Q04DX003 (ip), vehicle: saline with Tween-80) was 161 % of control, the T/C (dose: 6.25 mg/kg/injection, schedule: Q04DX003 (ip), vehicle: saline) was 112 % of control and the T/C (dose: 6.48 mg/kg/injection, schedule: Q04DX003 (ip), vehicle: clinical formulation) was 108 % of control. The T/C (dose: 8.0 mg/kg/injection, schedule: Q01DX005 (ip), vehicle: saline with Tween-80) was 160 % of control, the T/C (dose: 8.0 mg/kg/injection, schedule: Q01DX005 (iv), vehicle: saline with Tween-80) was 115 % of control and the T/C (dose: 10.0 mg/kg/injection, schedule: Q01DX005 (ip), vehicle: Klucel (hydroxypropylcellulose) (HPC)) was 153 % of control. The T/C (dose: 10.0 mg/kg/injection, schedule: Q01DX005 (ip), vehicle: saline with Tween-80) was 166 % of control, the T/C (dose: 10.0 mg/kg/injection, schedule: Q04DX003 (ip), vehicle: distilled water + Tween-80) was 118 % of control and the T/C (dose: 10.0 mg/kg/injection, schedule: Q04DX003 (ip), vehicle: water) was 112 % of control. For the same compound, the T/C (dose: 10.0 mg/kg/injection, schedule: Q04DX003 (iv), vehicle: distilled water + Tween-80) was 124 % of control, the T/C (dose: 10.0 mg/kg/injection, schedule: Q04DX003 (iv), vehicle: water) was 112 % of control and the T/C (dose: 10.8 mg/kg/injection, schedule: Q04DX003 (ip), vehicle: clinical formulation) was 110 % of control. The T/C (dose: 12.5 mg/kg/injection, schedule: Q01DX009 (ip), vehicle: saline with Tween-80) was 195 % of control and 204 % of control, the T/C (dose: 12.5 mg/kg/injection, schedule: Q04DX002 (ip), vehicle: Klucel (hydroxypropylcellulose) (HPC)) was 150 % of control and the T/C (dose: 12.5 mg/kg/injection, schedule: Q04DX003 (ip), vehicle: alkali diluted with water) was 164 % of control. The T/C (dose: 13.0 mg/kg/injection, schedule: Q04DX003 (ip), vehicle: water) was 123 % of control, the T/C (dose: 16.0 mg/kg/injection, schedule: Q01DX005 (ip), vehicle: saline with Tween-80) was 189 % of control and the T/C (dose: 16.0 mg/kg/injection, schedule: Q01DX005 (iv), vehicle: saline with Tween-80) was 117 % of control. For the same compound, the T/C (dose: 16.0 mg/kg/injection, schedule: Q01DX005 (oral), vehicle: saline with Tween-80) was 155 % of control, the T/C (dose: 18.0 mg/kg/injection, schedule: Q04DX003 (ip), vehicle: clinical formulation) was 110 % of control and the T/C (dose: 20.0 mg/kg/injection, schedule: Q01DX005 (ip), vehicle: Klucel (hydroxypropylcellulose) (HPC)) was 176 % of control and 177 % of control. The T/C (dose: 20.0 mg/kg/injection, schedule: Q01DX005 (ip), vehicle: saline with Tween-80) was 200 % of control, the T/C (dose: 20.0 mg/kg/injection, schedule: Q01DX005 (iv), vehicle: saline with Tween-80) was 111 % of control and the T/C (dose: 20.0 mg/kg/injection, schedule: Q04DX003 (ip), vehicle: distilled water + Tween-80) was 157 % of control. For the same compound, the T/C (dose: 20.0 mg/kg/injection, schedule: Q04DX003 (ip), vehicle: water) was 163 % of control, the T/C (dose: 21.6 mg/kg/injection, schedule: Q04DX002 (ip), vehicle: Klucel (hydroxypropylcellulose) (HPC)) was 171 % of control and the T/C (dose: 21.6 mg/kg/injection, schedule: Q04DX003 (ip), vehicle: water) was 150 % of control. The T/C (dose: 25.0 mg/kg/injection, schedule: Q01DX009 (ip), vehicle: saline with Tween-80) was 204 % of control, the T/C (dose: 25.0 mg/kg/injection, schedule: Q04DX002 (ip), vehicle: Klucel (hydroxypropylcellulose) (HPC)) was 153 % of control and the T/C (dose: 25.0 mg/kg/injection, schedule: Q04DX003 (ip), vehicle: alkali diluted with water) was 183 % of control. The T/C (dose: 25.0 mg/kg/injection, schedule: Q04DX003 (ip), vehicle: clinical formulation) was 178 % of control and 180 % of control, the T/C (dose: 25.0 mg/kg/injection, schedule: Q04DX003 (ip), vehicle: water) was 163 % of control and the T/C (dose: 30.0 mg/kg/injection, schedule: Q04DX003 (ip), vehicle: clinical formulation) was 198 % of control. For the same compound, the T/C (dose: 32.0 mg/kg/injection, schedule: Q01DX005 (ip), vehicle: saline with Tween-80) was 207 % of control, the T/C (dose: 32.0 mg/kg/injection, schedule: Q01DX005 (iv), vehicle: saline with Tween-80) was 162 % of control and the T/C (dose: 32.0 mg/kg/injection, schedule: Q01DX005 (oral), vehicle: saline with Tween-80) was 186 % of control. For the same compound, the T/C (dose: 36.0 mg/kg/injection, schedule: Q04DX002 (ip), vehicle: Klucel (hydroxypropylcellulose) (HPC)) was 191 % of control, the T/C (dose: 36.0 mg/kg/injection, schedule: Q04DX002 (ip), vehicle: saline with Tween-80) was 158 % of control and the T/C (dose: 36.0 mg/kg/injection, schedule: Q04DX003 (ip), vehicle: water) was 176 % of control. For the same compound, the T/C (dose: 40.0 mg/kg/injection, schedule: Q01DX005 (ip), vehicle: Klucel (hydroxypropylcellulose) (HPC)) was 202 % of control and 90 % of control, the T/C (dose: 40.0 mg/kg/injection, schedule: Q01DX005 (ip), vehicle: saline with Tween-80) was 227 % of control and the T/C (dose: 40.0 mg/kg/injection, schedule: Q04DX003 (ip), vehicle: distilled water + Tween-80) was 193 % of control. The T/C (dose: 40.0 mg/kg/injection, schedule: Q04DX003 (ip), vehicle: water) was 117 % of control, the T/C (dose: 43.2 mg/kg/injection, schedule: Q04DX002 (ip), vehicle: saline with Tween-80) was 176 % of control and the T/C (dose: 50.0 mg/kg/injection, schedule: Q01DX009 (ip), vehicle: saline with Tween-80) was 86 % of control. The T/C (dose: 50.0 mg/kg/injection, schedule: Q04DX002 (ip), vehicle: Klucel (hydroxypropylcellulose) (HPC)) was 168 % of control, the T/C (dose: 50.0 mg/kg/injection, schedule: Q04DX003 (ip), vehicle: alkali diluted with water) was 221 % of control and the T/C (dose: 50.0 mg/kg/injection, schedule: Q04DX003 (ip), vehicle: clinical formulation) was 181 % of control. The T/C (dose: 50.0 mg/kg/injection, schedule: Q04DX003 (ip), vehicle: water) was 167 % of control, the T/C (dose: 60.0 mg/kg/injection, schedule: Q04DX002 (ip), vehicle: Klucel (hydroxypropylcellulose) (HPC)) was 198 % of control and the T/C (dose: 60.0 mg/kg/injection, schedule: Q04DX002 (ip), vehicle: saline with Tween-80) was 161 % of control. The T/C (dose: 60.0 mg/kg/injection, schedule: Q04DX003 (ip), vehicle: water) was 219 % of control, the T/C (dose: 72.0 mg/kg/injection, schedule: Q04DX002 (ip), vehicle: saline with Tween-80) was 166 % of control and 199 % of control and the T/C (dose: 80.0 mg/kg/injection, schedule: Q04DX003 (ip), vehicle: distilled water + Tween-80) was 190 % of control and 254 % of control. The T/C (dose: 90.0 mg/kg/injection, schedule: Q04DX002 (ip), vehicle: saline with Tween-80) was 185 % of control and 190 % of control, the T/C (dose: 100.0 mg/kg/injection, schedule: Q04DX002 (ip), vehicle: Klucel (hydroxypropylcellulose) (HPC)) was 220 % of control and 230 % of control and the T/C (dose: 100.0 mg/kg/injection, schedule: Q04DX003 (ip), vehicle: alkali diluted with water) was 219 % of control. For the same compound, the T/C (dose: 100.0 mg/kg/injection, schedule: Q04DX003 (ip), vehicle: water) was 203 % of control, the T/C (dose: 120.0 mg/kg/injection, schedule: Q04DX002 (ip), vehicle: saline with Tween-80) was 157 % of control and 218 % of control and the T/C (dose: 134.0 mg/kg/injection, schedule: Q04DX002 (ip), vehicle: saline with Tween-80) was 211 % of control and 214 % of control. For the same compound, the T/C (dose: 167.0 mg/kg/injection, schedule: Q04DX002 (ip), vehicle: Klucel (hydroxypropylcellulose) (HPC)) was 207 % of control, the T/C (dose: 167.0 mg/kg/injection, schedule: Q04DX002 (ip), vehicle: saline with Tween-80) was 158 % of control and the T/C (dose: 200.0 mg/kg/injection, schedule: Q04DX002 (ip), vehicle: Klucel (hydroxypropylcellulose) (HPC)) was 88 % of control. For the same compound, the T/C (dose: 200.0 mg/kg/injection, schedule: Q04DX003 (ip), vehicle: alkali diluted with water) was 100 % of control and the T/C (dose: 300.0 mg/kg/injection, schedule: Q04DX002 (ip), vehicle: saline with Tween-80) was 165 % of control.
